How the values were obtained:
CASOB (Sicklepod) = assay: Postemergence herbicidal evaluation; format: in vivo, Cassia obtusifolia; details: postemergence
Method: In the tests, seedling plants are grown in jiffy flats for about two weeks. The test compounds are dispersed in 50/50 acetone/water mixtures containing 0.5% TWEEN®20, a polyoxyethylene sorbitan monolaurate surfactant of Atlas Chemical Industries, in sufficient quantities to provide the equivalent of about 0.0156 kg to 0.500 kg per hectare of active compound when applied to the plants through a spray nozzle operating at 40 psi for a predetermined time. After spraying, the plants are placed on greenhouse benches and are cared for in accordance with conventional greenhouse procedures. From four to five weeks after treatment, the seedling plants are examined and rated according to the rating system set forth below. Where more than one test is involved for a given compound, the data are averaged.
Plant species employed in these evaluations are reported by header abbreviation, common name and scientific name.
(§1) Results of herbicide evaluation are expressed on a rating scale (0-9). The scale is based upon a visual observation of plant stand, vigor, malformation, size, chlorosis and overall plant appearance as compared with a control.

[1] = test system: GLXMAW (Soybean, Williams); assay: Preemergence herbicidal evaluation; format: in vivo, Glycine max, (L.) Merr. cv Williams; details: rated 4-5 weeks after treatment
From the text: as §1
(§2) The preemergence herbicidal activity of the test compounds of the present invention is exemplified by the following tests in which the seeds of a variety of monocotyledonous and dicotyledonous plants are separately mixed with potting soil and planted on top of approximately one inch of soil in separate pint cups. After planting, the cups are sprayed with the selected aqueous acetone solution containing test compound in sufficient quantity to provide the equivalent of about 0.0156 to 0.500 kg per hectare of test compound per cup. The treated cups are then placed on greenhouse benches, watered and cared for in accordance with conventional greenhouse procedures. From four to five weeks after treatment, the tests are terminated and each cup is examined and rated according to the rating system provided in Example 37.
(§3) The compounds evaluated are reported by compound number given in Example 37.

ORYSAT (Rice, Tebonnet) = assay: Preemergence herbicidal evaluation; format: in vivo, Oryza sativa, (L.) Tebonnet; details: rated 4-5 weeks after treatment
From the text: as §1, §2, §3

[2] = test system: TRZAWR (Wheat, Winter, cv Riband); assay: Preemergence herbicidal evaluation; format: in vivo, Triticum aestivum; details: rated 4-5 weeks after treatment
From the text: as §1, §2, §3

[3] = test system: SAGPY (Arrowhead (Pygmaea)); assay: Preemergence weed control under flooded paddy conditions; format: in vivo, Sagittaria pygmaea; details: rated 3-4 weeks after treatment
Method: as §1
Preemergence herbicidal activity under flooded paddy conditions is determined as follows: plant seeds or propagating organs are planted in the top 0.5 cm of silt loam soil in 32 oz. plastic containers with a diameter of 10.5 cm and no drainage holes. Water is added to these containers and maintained at 1.5 to 3 cm above the soil surface for the duration of the experiment. The test compounds are applied as aqueous/acetone mixtures 50/50 v/v pipetted directly into the flood water to give the equivalent of about 0.0313 to 0.500 kg/ha of active ingredient. The treated containers are placed on greenhouse benches and cared for in accordance with conventional greenhouse procedures. Three to four weeks after treatment, the test is terminated and each container is examined and herbicidal effect rated according to the rating system provided in Example 37. The compounds evaluated are reported by compound number given in Example 37.
Plant species employed in this example are reported by header abbreviation, common name and scientific name.

[4] = rate 0.0313 kg/ha, rating scale 0-9
[5] = rate 0.0625 kg/ha, rating scale 0-9
[6] = rate 0.1250 kg/ha, rating scale 0-9
[7] = rate 0.2500 kg/ha, rating scale 0-9

SMILES	Herbicidal rating CASOB (CASOB (Sicklepod); rate 0.0156 kg/ha)	Herbicidal rating CASOB (CASOB (Sicklepod); rate 0.0313 kg/ha)	Herbicidal rating CASOB (CASOB (Sicklepod); rate 0.0625 kg/ha)	Preemergence herbicidal rating GLXMAW [1, 5]	Preemergence herbicidal rating GLXMAW [1, 6]	Preemergence herbicidal rating GLXMAW [1, 7]	Preemergence herbicidal rating ORYSAT (ORYSAT (Rice, Tebonnet); [5])	Preemergence herbicidal rating ORYSAT (ORYSAT (Rice, Tebonnet); [6])	Preemergence herbicidal rating ORYSAT (ORYSAT (Rice, Tebonnet); [7])	Preemergence herbicidal rating TRZAWR [2, 5]	Preemergence herbicidal rating TRZAWR [2, 6]	Preemergence herbicidal rating TRZAWR [2, 7]	herbicidal effect rating, SAGPY ([3]; 0.1250 kg/ha)	herbicidal effect rating, SAGPY ([3]; 0.2500 kg/ha)	Preemergence herbicidal rating GLXMAW ([1]; rate 0.0156 kg/ha)	Preemergence herbicidal rating GLXMAW ([1]; rate 0.0313 kg/ha)	Preemergence herbicidal rating GLXMAW ([1]; rate 0.0625 kg/ha)	Preemergence herbicidal rating GLXMAW ([1]; rate 0.1250 kg/ha)	herbicidal effect rating, SAGPY ([3]; 0.0313 kg/ha)	herbicidal effect rating, SAGPY ([3]; 0.0625 kg/ha)	further results
Cn1c(C(F)(F)F)cc(=O)n(-c2cc(N=C3SCC(=O)N3Cc3ccccn3)c(Cl)cc2F)c1=O [Compound 131]	1.0	1.0	3.0	1.0	1.0	1.0	0.0	0.0	0.0	0.0	0.0	0.0	0.0	2.0	–	–	–	–	–	–	Preemergence herbicidal rating GLXMAW [1, 4]: 0.0; Preemergence herbicidal rating ORYSAT (ORYSAT (Rice, Tebonnet); [4]): 0.0; Preemergence herbicidal rating TRZAWR [2, 4]: 0.0
Cc1ccccc1CN1C(=O)CSC1=Nc1cc(-n2c(=O)cc(C(F)(F)F)n(C)c2=O)c(F)cc1Cl [Compound 129, 3-{4-Chloro-2-fluoro-5-{[3-(o-methylbenzyl)-4-oxo-2-thiazolidinylidene]amino}phenyl}-1-methyl-6-(trifluoromethyl)-2,4 (1H,3H)-pyrimidinedione]	3.0	4.0	4.0	–	–	–	–	–	–	–	–	–	2.0	7.0	0.0	0.0	2.0	2.0	0.0	0.0	Preemergence herbicidal rating GLXMAW ([1]; rate 0.2500 kg/ha): 4.0; Preemergence herbicidal rating ORYSAT (ORYSAT (Rice, Tebonnet); rate 0.0156 kg/ha): 0.0; Preemergence herbicidal rating ORYSAT (ORYSAT (Rice, Tebonnet); rate 0.0313 kg/ha): 0.0; Preemergence herbicidal rating ORYSAT (ORYSAT (Rice, Tebonnet); rate 0.0625 kg/ha): 1.0; Preemergence herbicidal rating ORYSAT (ORYSAT (Rice, Tebonnet); rate 0.1250 kg/ha): 1.0; Preemergence herbicidal rating ORYSAT (ORYSAT (Rice, Tebonnet); rate 0.2500 kg/ha): 3.0; Preemergence herbicidal rating TRZAWR ([2]; rate 0.0156 kg/ha): 0.0; Preemergence herbicidal rating TRZAWR ([2]; rate 0.0313 kg/ha): 0.0; Preemergence herbicidal rating TRZAWR ([2]; rate 0.0625 kg/ha): 0.0; Preemergence herbicidal rating TRZAWR ([2]; rate 0.1250 kg/ha): 1.0; Preemergence herbicidal rating TRZAWR ([2]; rate 0.2500 kg/ha): 1.0
Cn1c(C(F)(F)F)cc(=O)n(-c2cc(N=C3SCC(=O)N3Cc3cccnc3)c(Cl)cc2F)c1=O [Compound 132, 3-{4-Chloro-2-fluoro-5-{[4-oxo-3-(3-pyridylmethyl)-2-thiazolidinylidene]amino}phenyl}-1-methyl-6-(trifluoromethyl)-2,4 (1H,3H)-pyrimidinedione]	1.0	1.0	6.0	0.0	0.0	2.0	0.0	0.0	1.0	0.0	0.0	1.0	0.0	0.0	–	–	–	–	0.0	0.0	–
Cn1c(C(F)(F)F)cc(=O)n(-c2cc(N=C3SCC(=O)N3C3CCCC3)c(Cl)cc2F)c1=O [Compound 166, 3-{4-Chloro-5-[(3-cyclopentyl-4-oxo-2-thiazolidinylidene)amino]-2-fluorophenyl}-1-methyl-6-(trifluoromethyl)-2,4(1H,3H)-pyrimidinedione]	0.0	0.0	0.0	–	–	–	–	–	–	–	–	–	5.0	6.0	–	–	–	–	2.0	4.0	Herbicidal rating CASOB (CASOB (Sicklepod); rate 0.1250 kg/ha): 1.0; Preemergence herbicidal rating GLXMAW ([1]; 0.0156 kg/ha): 0.0; Preemergence herbicidal rating GLXMAW ([1]; 0.0313 kg/ha): 2.0; Preemergence herbicidal rating GLXMAW ([1]; 0.0625 kg/ha): 2.0; Preemergence herbicidal rating GLXMAW ([1]; 0.1250 kg/ha): 2.0; Preemergence herbicidal rating GLXMAW ([1]; 0.2500 kg/ha): 6.0; Preemergence herbicidal rating GLXMAW ([1]; 0.5000 kg/ha): 6.0; Preemergence herbicidal rating ORYSAT (ORYSAT (Rice, Tebonnet); 0.0156 kg/ha): 0.0; Preemergence herbicidal rating ORYSAT (ORYSAT (Rice, Tebonnet); 0.0313 kg/ha): 0.0; Preemergence herbicidal rating ORYSAT (ORYSAT (Rice, Tebonnet); 0.0625 kg/ha): 1.0; Preemergence herbicidal rating ORYSAT (ORYSAT (Rice, Tebonnet); 0.1250 kg/ha): 1.0; Preemergence herbicidal rating ORYSAT (ORYSAT (Rice, Tebonnet); 0.2500 kg/ha): 1.0; Preemergence herbicidal rating ORYSAT (ORYSAT (Rice, Tebonnet); 0.5000 kg/ha): 5.0; Preemergence herbicidal rating TRZAWR ([2]; 0.0156 kg/ha): 0.0; Preemergence herbicidal rating TRZAWR ([2]; 0.0313 kg/ha): 0.0; Preemergence herbicidal rating TRZAWR ([2]; 0.0625 kg/ha): 1.0; Preemergence herbicidal rating TRZAWR ([2]; 0.1250 kg/ha): 1.0; Preemergence herbicidal rating TRZAWR ([2]; 0.2500 kg/ha): 1.0; Preemergence herbicidal rating TRZAWR ([2]; 0.5000 kg/ha): 3.0
CCOC(=O)CN1C(=O)C(Br)SC1=Nc1cc(-n2c(=O)cc(C(F)(F)F)n(C)c2=O)c(F)cc1Cl (stereo not drawn) [Compound 153, Ethyl 5-bromo-2-[{2-chloro-5-[3,6-dihydro-3-methyl-2,6-dioxo-4-(trifluoromethyl)-1(2H)-pyrimidinyl]-4-fluorophenyl}imino}-4-oxo-3-thiazolidineacetate]	0.0	0.0	1.0	–	0.0	1.0	–	0.0	0.0	–	0.0	0.0	0.0	0.0	–	–	–	–	–	0.0	–
CC(C)OC(=O)CN1C(=O)CSC1=Nc1cc(-n2c(=O)cc(C(F)(F)F)n(C)c2=O)c(F)cc1Cl [Compound 110]	–	–	–	–	–	–	–	–	–	–	–	–	–	–	0.5	0.5	2.5	4.0	–	–	Herbicidal rating CASOB (CASOB (Sicklepod); rate 0.0158 kg/ha): 1.0; Herbicidal rating CASOB (CASOB (Sicklepod); rate 0.0315 kg/ha): 1.0; Herbicidal rating CASOB (CASOB (Sicklepod); rate 0.0630 kg/ha): 1.0; Preemergence herbicidal rating GLXMAW ([1]; rate 0.2500 kg/ha): 5.5; Preemergence herbicidal rating GLXMAW ([1]; rate 0.5000 kg/ha): 7.0; Preemergence herbicidal rating ORYSAT (ORYSAT (Rice, Tebonnet); rate 0.0156 kg/ha): 0.0; Preemergence herbicidal rating ORYSAT (ORYSAT (Rice, Tebonnet); rate 0.0313 kg/ha): 0.5; Preemergence herbicidal rating ORYSAT (ORYSAT (Rice, Tebonnet); rate 0.0625 kg/ha): 0.5; Preemergence herbicidal rating ORYSAT (ORYSAT (Rice, Tebonnet); rate 0.1250 kg/ha): 1.5; Preemergence herbicidal rating ORYSAT (ORYSAT (Rice, Tebonnet); rate 0.2500 kg/ha): 5.0; Preemergence herbicidal rating ORYSAT (ORYSAT (Rice, Tebonnet); rate 0.5000 kg/ha): 3.0; Preemergence herbicidal rating TRZAWR ([2]; rate 0.0156 kg/ha): 0.0; Preemergence herbicidal rating TRZAWR ([2]; rate 0.0313 kg/ha): 1.0; Preemergence herbicidal rating TRZAWR ([2]; rate 0.0625 kg/ha): 1.0; Preemergence herbicidal rating TRZAWR ([2]; rate 0.1250 kg/ha): 1.0; Preemergence herbicidal rating TRZAWR ([2]; rate 0.2500 kg/ha): 1.0; SAGPY herbicidal effect rating ([3]; 0.0313 kg/ha): 6.0; SAGPY herbicidal effect rating ([3]; 0.0625 kg/ha): 7.0; SAGPY herbicidal effect rating ([3]; 0.1250 kg/ha): 7.0; SAGPY herbicidal effect rating ([3]; 0.2500 kg/ha): 8.0

Source: patent US20020137929A1, “1 - (3-heterocyclylphenyl) isothiourea, -isourea, -guanidine and -amidine herbicidal agents” (Intellectual Property Department, BASF Aktiengesellschaft, priority 1998, published 2002)
